Laboratory results published in ChEMBL document CHEMBL4359816, “Discovery and Optimization of Quinolinone Derivatives as Potent, Selective, and Orally Bioavailable Mutant Isocitrate Dehydrogenase 1 (mIDH1) Inhibitors” (J Med Chem, 2019).

Key:
[1] = target: T1, Isocitrate dehydrogenase [NADP] cytoplasmic (Homo sapiens, UniProt O75874, R132C); assay: Inhibition of human Myc-DDK-tagged IDH1 R132C mutant assessed as reduction in NADPH consumption pre-incubated for 15 mins followed by alpha-ketoglutarate substrate and NADPH addition after 45 mins by diaphorase and resazurin dye based assay
T1 sequence (O75874 2-414 R132C limits assumed): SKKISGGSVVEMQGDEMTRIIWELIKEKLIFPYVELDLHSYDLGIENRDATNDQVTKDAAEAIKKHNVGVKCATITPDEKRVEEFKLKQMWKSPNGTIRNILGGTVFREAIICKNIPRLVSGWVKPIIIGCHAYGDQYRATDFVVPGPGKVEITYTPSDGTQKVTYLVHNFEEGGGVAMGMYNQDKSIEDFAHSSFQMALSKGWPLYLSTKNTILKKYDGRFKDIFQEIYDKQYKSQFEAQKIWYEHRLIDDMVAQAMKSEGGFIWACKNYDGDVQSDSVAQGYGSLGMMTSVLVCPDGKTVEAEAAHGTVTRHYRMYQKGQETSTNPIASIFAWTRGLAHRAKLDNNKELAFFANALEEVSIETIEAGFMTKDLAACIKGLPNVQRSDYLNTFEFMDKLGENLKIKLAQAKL

[2] = target: T1, Isocitrate dehydrogenase [NADP] cytoplasmic; assay: Inhibition of human Myc-DDK-tagged IDH1 R132C mutant expressed in human U87MG cells assessed as reduction in 2-HG levels after 24 hrs by RapidFire high-throughput mass spectrometry assay; type: cell-based
[3] = target: Isocitrate dehydrogenase [NADP] cytoplasmic (Homo sapiens, UniProt O75874, R132L); assay: Inhibition of human Myc-DDK-tagged IDH1 R132L mutant expressed in human U87MG cells assessed as reduction in 2-HG levels after 24 hrs by RapidFire high-throughput mass spectrometry assay; type: cell-based
Sequence of Isocitrate dehydrogenase [NADP] cytoplasmic (Homo sapiens, UniProt O75874, R132L) (O75874 2-414 R132L limits assumed): as the sequence (O75874 2-414 R132C limits assumed) above, with C131L counted along it

[4] = Permeability of the compound by PAMPA; type: ADME; settings: read-out: permeability
[5] = Apparent permeability of the compound across basolateral side to apical side in human Caco2 cells; type: ADME, cell-based; settings: Caco-2
[6] = Efflux ratio of apparent permeability from basolateral side to apical side over apical side to basolateral side in human Caco2 cells; type: ADME, cell-based; settings: Caco-2
[7] = Efflux ratio of apparent permeability from basolateral side to apical side over apical side to basolateral side in MDCK cells; type: ADME, cell-based, Canis lupus familiaris; settings: dog
[8] = Protein binding in rat plasma; type: ADME, cell-free; settings: read-out: PPB (converted)
[9] = Oral bioavailability in rat at 5 mg/kg; type: ADME, organism-based; settings: in vivo
[10] = Half-life in mouse at 1 mg/kg, iv or 5 mg/kg, po; type: ADME, organism-based; settings: in vivo
[11] = fAUC (infinity) in mouse at 1 mg/kg, iv or 5 mg/kg, po; type: ADME, organism-based; settings: in vivo
[12] = Oral bioavailability in mouse at 5 mg/kg; type: ADME, organism-based; settings: in vivo
[13] = Half-life in dog at 0.5 mg/kg, iv; type: ADME, organism-based, Canis lupus familiaris; settings: in vivo
[14] = fAUC (infinity) in dog at 0.5 mg/kg, iv; type: ADME, organism-based, Canis lupus familiaris; settings: in vivo
[15] = Clearance in dog at 0.5 mg/kg, iv; type: ADME, organism-based, Canis lupus familiaris; settings: in vivo
Mus musculus [16] = type: functional; settings: BALB/c, HCT-116, po
Mus musculus [17] = type: functional, BALB/c
[18] = target: Isocitrate dehydrogenase [NADP], mitochondrial (Homo sapiens, UniProt P48735, R172K); assay: Inhibition of IDH2 R172K mutant (unknown origin)
Sequence of Isocitrate dehydrogenase [NADP], mitochondrial (Homo sapiens, UniProt P48735, R172K) (P48735 40-452 R172K limits assumed): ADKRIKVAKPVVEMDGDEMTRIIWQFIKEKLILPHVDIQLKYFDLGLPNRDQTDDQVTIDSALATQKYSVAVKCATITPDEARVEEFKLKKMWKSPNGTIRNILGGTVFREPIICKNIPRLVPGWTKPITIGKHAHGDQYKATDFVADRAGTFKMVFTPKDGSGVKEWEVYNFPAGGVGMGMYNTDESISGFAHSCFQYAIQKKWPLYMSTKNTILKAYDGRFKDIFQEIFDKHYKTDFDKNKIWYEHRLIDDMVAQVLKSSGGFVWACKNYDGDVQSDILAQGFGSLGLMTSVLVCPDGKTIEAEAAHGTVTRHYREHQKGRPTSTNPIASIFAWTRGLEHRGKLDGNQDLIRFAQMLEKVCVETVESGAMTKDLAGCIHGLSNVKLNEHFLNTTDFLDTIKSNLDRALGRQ

[19] = target: Isocitrate dehydrogenase [NADP], mitochondrial (Homo sapiens, UniProt P48735, R140Q); assay: Inhibition of IDH2 R140Q mutant (unknown origin)
Sequence of Isocitrate dehydrogenase [NADP], mitochondrial (Homo sapiens, UniProt P48735, R140Q) (P48735 40-452 R140Q limits assumed): as the sequence (P48735 40-452 R172K limits assumed) above, with R101Q, K133R counted along it

CYP2D6 = CYP2D6 (Homo sapiens, UniProt P10635); assay: Inhibition of CYP2D6 (unknown origin) at 10 uM relative to control; type: ADME
Sequence of CYP2D6 (P10635 whole entry): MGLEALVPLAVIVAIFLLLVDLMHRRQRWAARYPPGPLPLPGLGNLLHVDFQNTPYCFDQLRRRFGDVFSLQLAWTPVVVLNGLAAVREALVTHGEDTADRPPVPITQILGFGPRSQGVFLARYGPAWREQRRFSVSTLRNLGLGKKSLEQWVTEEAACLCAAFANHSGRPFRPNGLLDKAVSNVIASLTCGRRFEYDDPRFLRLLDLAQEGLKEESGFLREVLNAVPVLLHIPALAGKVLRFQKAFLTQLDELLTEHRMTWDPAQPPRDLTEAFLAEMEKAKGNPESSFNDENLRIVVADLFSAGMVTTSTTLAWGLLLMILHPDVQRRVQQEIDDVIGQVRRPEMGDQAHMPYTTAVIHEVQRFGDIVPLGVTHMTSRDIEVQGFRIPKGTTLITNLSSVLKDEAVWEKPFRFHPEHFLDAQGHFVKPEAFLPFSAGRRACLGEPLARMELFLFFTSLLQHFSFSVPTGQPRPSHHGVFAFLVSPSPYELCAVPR

CYP2C9 = CYP2C9 (Homo sapiens, UniProt P11712); assay: Inhibition of CYP2C9 (unknown origin) at 10 uM relative to control; type: ADME
Sequence of CYP2C9 (P11712 whole entry): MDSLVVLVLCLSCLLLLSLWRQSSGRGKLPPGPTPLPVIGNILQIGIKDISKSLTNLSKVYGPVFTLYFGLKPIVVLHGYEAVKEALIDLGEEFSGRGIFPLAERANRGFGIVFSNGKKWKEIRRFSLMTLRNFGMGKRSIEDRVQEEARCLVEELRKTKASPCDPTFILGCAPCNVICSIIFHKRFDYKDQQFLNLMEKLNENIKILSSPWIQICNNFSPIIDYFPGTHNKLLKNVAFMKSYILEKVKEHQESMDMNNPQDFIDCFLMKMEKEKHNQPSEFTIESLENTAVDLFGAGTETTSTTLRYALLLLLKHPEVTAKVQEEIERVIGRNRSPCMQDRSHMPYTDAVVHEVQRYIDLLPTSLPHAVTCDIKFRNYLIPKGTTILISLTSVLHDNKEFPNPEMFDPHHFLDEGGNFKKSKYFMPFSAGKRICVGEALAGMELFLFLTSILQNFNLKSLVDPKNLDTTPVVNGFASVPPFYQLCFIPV

Cytochrome P450 3A4 = Cytochrome P450 3A4 (Homo sapiens, UniProt P08684); assay: Time dependent inhibition of CYP3A4 (unknown origin) at <5 uM pre-incubated for 30 mins followed by testosterone substrate addition in presence of NADPH; type: ADME
Sequence of Cytochrome P450 3A4 (P08684 whole entry): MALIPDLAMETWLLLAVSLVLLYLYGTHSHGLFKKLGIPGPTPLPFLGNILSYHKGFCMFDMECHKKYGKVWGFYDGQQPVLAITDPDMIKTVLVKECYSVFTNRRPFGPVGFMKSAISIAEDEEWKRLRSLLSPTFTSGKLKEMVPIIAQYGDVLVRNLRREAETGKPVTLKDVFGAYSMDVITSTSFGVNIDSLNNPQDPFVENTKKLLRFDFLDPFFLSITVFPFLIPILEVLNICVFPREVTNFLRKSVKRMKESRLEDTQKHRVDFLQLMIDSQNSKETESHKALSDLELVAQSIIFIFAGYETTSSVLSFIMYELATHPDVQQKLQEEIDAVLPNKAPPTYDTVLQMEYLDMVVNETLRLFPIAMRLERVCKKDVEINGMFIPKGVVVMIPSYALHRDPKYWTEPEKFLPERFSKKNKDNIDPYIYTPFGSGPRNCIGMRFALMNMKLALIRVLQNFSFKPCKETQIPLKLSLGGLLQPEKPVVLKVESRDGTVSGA

PXR = PXR (Homo sapiens, UniProt O75469); assay: Activation of PXR (unknown origin) stably expressed in human HepG2 cells at 10 uM relative to rifampicin; type: ADME, cell-based; settings: HepG2 cells stably expressing PXR, read-out: Activity
Sequence of PXR (O75469 whole entry): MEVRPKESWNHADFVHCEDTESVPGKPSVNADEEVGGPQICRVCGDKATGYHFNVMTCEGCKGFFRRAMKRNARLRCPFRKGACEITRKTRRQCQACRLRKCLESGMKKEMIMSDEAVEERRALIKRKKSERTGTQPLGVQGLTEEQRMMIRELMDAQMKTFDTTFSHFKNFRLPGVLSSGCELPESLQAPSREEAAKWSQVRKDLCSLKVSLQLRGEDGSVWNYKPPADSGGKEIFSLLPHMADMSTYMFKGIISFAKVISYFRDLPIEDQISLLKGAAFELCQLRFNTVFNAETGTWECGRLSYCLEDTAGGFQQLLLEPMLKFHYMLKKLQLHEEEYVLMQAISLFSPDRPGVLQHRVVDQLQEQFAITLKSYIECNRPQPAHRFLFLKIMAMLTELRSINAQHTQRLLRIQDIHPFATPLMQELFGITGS

[20] = target: alpha1 adrenergic receptor (Homo sapiens, UniProt P35348); assay: Displacement of [3H] prazosin from human alpha1 adrenergic receptor at 1 uM measured after 60 mins by scintillation counting method relative to control; settings: probe [3H] prazosin
Sequence of alpha1 adrenergic receptor (P35348 whole entry): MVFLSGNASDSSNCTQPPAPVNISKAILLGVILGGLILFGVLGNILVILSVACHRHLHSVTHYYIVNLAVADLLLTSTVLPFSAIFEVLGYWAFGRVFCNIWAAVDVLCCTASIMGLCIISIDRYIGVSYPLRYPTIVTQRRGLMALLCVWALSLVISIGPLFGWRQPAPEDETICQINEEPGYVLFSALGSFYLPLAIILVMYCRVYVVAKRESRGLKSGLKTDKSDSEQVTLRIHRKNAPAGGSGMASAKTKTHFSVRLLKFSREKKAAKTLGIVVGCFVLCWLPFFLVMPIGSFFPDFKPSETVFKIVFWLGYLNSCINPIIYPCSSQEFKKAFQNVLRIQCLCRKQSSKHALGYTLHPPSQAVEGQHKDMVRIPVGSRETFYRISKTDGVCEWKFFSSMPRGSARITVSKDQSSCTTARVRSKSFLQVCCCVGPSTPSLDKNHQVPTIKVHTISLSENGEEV

COc1nc(N[C@@H](C)c2cc3cc(Cl)ccc3[nH]c2=O)ncc1C#N
IC50 [1]: 0.13 µM
IC50 [2]: 0.13 µM
IC50 [3]: 0.06 µM
Papp [4]: 180 nm/s
Papp B→A [5]: 86.4 nm/s
efflux ratio [6]: 1
efflux ratio [7]: 0.63
fraction unbound [8]: 0.0203
bioavailability [9]: 81%
half-life [10]: 10 h
fAUC [11]: 2060 nM·h
bioavailability [12]: 130%
half-life [13]: 5.2 h
fAUC [14]: 123 nM·h
clearance [15]: 0.462 L/h/kg
inhibition in vivo at 25 mg/kg (Mus musculus [16]): > 90%
fIC50 (Mus musculus [17]): 49 nM
IC50 [18]: 33.8 µM
IC50 [19]: 76.6 µM
inhibition at 10 µM (CYP2D6): 10.2%
inhibition at 10 µM (CYP2C9): 13.6%
TDI (Cytochrome P450 3A4): Not Active
activity at 10 µM (PXR): 15%
inhibition at 1 h, 1 µM [20]: > 50%
